Measurements from patent publication US4206235A, “Novel 2,5-dihalophenyl-β-substituted sulfone fungicides” (priority 1976, dated 1980).
In brackets after ≈: the same amount, converted by molar mass.

Experiments:
[1] = test system: mixed spore suspension of Aspergillus flavus, Aspergillus niger, Paecilomyces varioti, Penicillium funiculosum, Trichoderma viride, Alternaria tenuis …; test: Weight Loss Test of PVC sheeting
[2] = test system: Fusarium oxysporum sp. f.lycopersici; test: Fungitoxicity in culture media (agar), growth inhibition; format: cell-based; conditions: 50% inhibition of growth, read-out: ED50 (the source's name)
Description: (§1) Acetone solutions of the compound were mixed with an aliquot of distilled water and the fine suspension obtained was mixed with cooled but melted agar medium and poured into Petri dishes.
(§2) The tested fungi were grown on the solidified media. Growth of the fungus was measured and percent inhibition was calculated by comparing with the appropriate acetone-water controls. Media were usually Martin's or potato-dextrose agar media.
(§3) ED50 = effective dose, sufficient for the 50% inhibition of growth of the fungus, expressed in p.p.m.

Rhizoctonia bataticola = test: as above; format: cell-based; conditions: Macrophomina phaseolina, 50% inhibition of growth, read-out: ED50 (the source's name)
Description: as §1, §2, §3

Rhizoctonia solani = test: as above; format: cell-based; conditions: 50% inhibition of growth, read-out: ED50 (the source's name)
Description: as §1, §2, §3

Rhizopus stolonifer = test: as above; format: cell-based; conditions: 50% inhibition of growth, read-out: ED50 (the source's name)
Description: as §1, §2, §3

Venturia inaequalis [3] = test: Control of apple scab in greenhouse test, apple seedlings; format: in vivo; conditions: Barrat & Horsfall Scale, 1 = 0%, 12 = 100% leaf scabbed, 15 days after inoculation
Venturia inaequalis [4] = test: Comparative performance of 2 compounds and 2 commercial fungicides, spray treated plants in greenhouse; format: in vivo

Q: With `[Cl][Hg][Cl]` [mercuric chloride, reference compound] as the compound, how does the “changes in weight (in words)” value [1] read?
A: only negligible changes in weight

Q: For `O=S(=O)(CC(Cl)Cl)c1cc(Br)ccc1Br` [Example 7, 2,5-dibromophenyl-β,β'-dichloroethyl sulfone], which IC50 [2] is on record?
A: 50 µg/mL (≈ 126 µM)

Q: And the IC50 (Rhizoctonia bataticola)?
A: 20 µg/mL (≈ 50.4 µM)

Q: And the IC50 (Rhizoctonia solani)?
A: 5 µg/mL (≈ 12.6 µM)

Q: And the IC50 (Rhizopus stolonifer)?
A: 50 µg/mL (≈ 126 µM)

Q: What about the Mean disease severity (Venturia inaequalis [3]; 50 p.p.m.) of the same compound?
A: 5.7

Q: What about the Mean disease severity (Venturia inaequalis [3]; 100 p.p.m.) of the same compound?
A: 5.3

Q: What about the Mean disease severity (Venturia inaequalis [3]; 500 p.p.m.) of the same compound?
A: 5.0

Q: `O=S(=O)(CC(Cl)(Cl)Cl)c1cc(Br)ccc1Br` [Example 8, 2,5-dibromophenyl-β,β',β"-trichloroethyl sulfone] was tested. Which Mean disease severity (Venturia inaequalis [3]; 50 p.p.m.) did it give?
A: 6.0

Q: And the Mean disease severity (Venturia inaequalis [3]; 100 p.p.m.)?
A: 2.0

Q: And the Mean disease severity (Venturia inaequalis [3]; 500 p.p.m.)?
A: 1.3

Q: And the Disease control (Venturia inaequalis [4]; Test No.1, inoculum 2.5 ×10^5 /ml, 50 p.p.m.)?
A: 86.4%

Q: And the Disease control (Venturia inaequalis [4]; Test No.1, inoculum 2.5 ×10^5 /ml, 100 p.p.m.)?
A: 97.4%

Q: And the Disease control (Venturia inaequalis [4]; Test No.1, inoculum 2.5 ×10^5 /ml, 500 p.p.m.)?
A: 100%

Q: And the Disease control (Venturia inaequalis [4]; Test No.2, inoculum 5.0 ×10^5 /ml, 50 p.p.m.)?
A: 99.9%

Q: And the Disease control (Venturia inaequalis [4]; Test No.2, inoculum 5.0 ×10^5 /ml, 100 p.p.m.)?
A: 100%

Q: What about the Disease control (Venturia inaequalis [4]; Test No.2, inoculum 5.0 ×10^5 /ml, 500 p.p.m.) of the same compound?
A: 99.9%

Q: For `O=S(=O)(CC(Cl)Br)c1cc(Cl)ccc1Cl` (stereo not drawn) [Example 6, 2,5-dichlorophenyl-β-chloro-β-bromoethyl sulfone], which IC50 [2] is on record?
A: > 50 µg/mL

Q: What about the IC50 (Rhizoctonia bataticola) of the same compound?
A: 20 µg/mL (≈ 56.7 µM)

Q: What about the IC50 (Rhizoctonia solani) of the same compound?
A: 10 µg/mL (≈ 28.4 µM)

Q: And the Mean disease severity (Venturia inaequalis [3]; 50 p.p.m.)?
A: 4.0

Q: And the Mean disease severity (Venturia inaequalis [3]; 100 p.p.m.)?
A: 1.0

Q: What about the Mean disease severity (Venturia inaequalis [3]; 500 p.p.m.) of the same compound?
A: 1.0
